In patent publication US8247442B2, “Benzenesulfonamide compounds and their use” (Purdue Pharma L.P., priority 2006, dated 2012):

Assays:
[1] = target: T1, N-type calcium channel (NTCC) (Homo sapiens, UniProt Q00975); experiment: FLIPR calcium mobilization assay for N-type calcium channel; type: cell-based; conditions: calcium mobilization in vitro assay; differentiated IMR32 cells, 90 mM KCl, 5 μM nitrendipine
T1 construct: endogenous in cells; host or cells: IMR32 cells (ATCC), differentiated with dibutyryl cAMP and bromodeoxyuridine
Experimental: Cell maintenance and differentiation. Unless noted otherwise, cell culture reagents were purchased from Mediatech of Hemdon, Md. IMR32 cells (American Type Culture Collection, ATCC, Manassas, Va.) were routinely cultured in growth medium consisting of minimum essential medium containing 10% fetal bovine serum (FBS, Hyclone, Logan, Utah), 100 U/mL penicillin, 100 μg/mL streptomycin, 2 mM L-glutamine, 1 mM sodium pyruvate, and 1×MEM non-essential amino acids. 80-90% confluent flasks of cells were differentiated using the following differentiation medium: Growth medium plus 1 mM dibutyryl cyclic AMP (Sigma, St. Louis, Mo.), and 2.5 μM bromodeoxyuridine (Sigma). Cells were differentiated for 8 days by replacing differentiation medium every 2-3 days.
FLIPR Calcium Mobilization Assay for N-type Calcium Channel. One day prior to performing this assay, differentiated IMR32 cells were treated with 1× CellStripper, and seeded on poly-D-lysine-coated 96-well clear-bottom black plates (Becton Dickinson, Franklin Lakes, N.J.) at 200,000 cells/well. On the day of the assay, the cell plates were washed with IMR32 buffer (127 mM NaCl, 1 mM KCl, 2 mM MgCl2, 700 μM NaH2PO4, 5 mM CaCl2, 5 mM NaHCO3, 8 mM HEPES, 10 mM glucose, pH 7.4), then pre-stimulated with KCl and loaded as follows: 0.05 mL of IMR32 buffer, 0.05 mL of each compound tested diluted in IMR32 buffer containing 20 μM nitrendipine (Sigma), and 0.1 mL KCl dissolved in IMR32 buffer, plus Fluo-4 were added (3 μM final concentration, Molecular Probes, Eugene, Oreg.). Final test compound concentrations ranged from about 846 μM to about 17 μM, final nitrendipine concentration was 5 μM, and final KCl concentration was 90 mM. After 1 hour, the cells were washed twice with 0.05 mL of each compound tested in nitrendipine-containing IMR32 buffer (no KCl or Fluo-4), and then replaced with 0.1 mL of each compound tested in nitrendipine-containing IMR32 buffer. Plates were then transferred to a Fluorimetric Imaging Plate Reader (FLIPR^96, Molecular Devices, Inc., Sunnyvale, Calif.) for assay. The FLIPR measured basal Fluo-4 fluorescence for 315 seconds (i.e., 5 minutes and 15 seconds), then added 0.1 mL KCl agonist dissolved in IMR32 buffer and measured fluorescence for another 45 seconds. Final test compound concentrations on the cells after FLIPR read ranged from about 846 μM to about 17 μM, final nitrendipine concentration was 5 μM, and final KCl concentration was 90 mM. Data were collected over the entire time course and analyzed using Excel, Graph Pad Prism (version 3.02, Graph Pad, San Diego, Calif.), or an in-house non-linear regression analysis software.

[2] = target: T2, recombinant rat L-type calcium channel (LTCC) subunits (α1c, α2δ, and β1) (Rattus norvegicus, UniProt P22002); experiment: FLIPR calcium mobilization assay for L-type calcium channel; type: cell-based; conditions: calcium mobilization in vitro assay; HEK293 cells stably expressing LTCC, 90 mM KCl
T2 construct: expressed in transfected cells; pcDNA6.2DEST α1c, pcDNA3.2DEST β1, pcDNA3.1-Zeo α2δ)
Experimental: Recombinant human embryonal kidney cells (HEK293, ATCC) stably transfected with either N-type calcium channel (NTCC) subunits (α1b, α2δ, and β3) or L-type calcium channel (LTCC) subunits (α1c, α2δ, and β1) were routinely cultured in growth medium consisting of Dulbecco's Modified Eagles Medium containing 10% FBS, 100 U/mL penicillin, 100 μg/mL streptomycin, 4 mM L-glutamine, 500 μg/mL geneticin (G418), 20 μg/mL Blasticidin S (InVivogen, San Diego, Calif.) and 500 μg/mL zeocin (InVivogen).
FLIPR Calcium Mobilization Assay for L-type Calcium Channel. One day prior to performing this assay, HEK293 cells stably expressing recombinant rat L-type calcium channel (LTCC) subunits (α1c, α2δ, and β1) were trypsinized, then seeded on poly-D-lysine-coated 96-well clear-bottom black plates (Becton Dickinson, Franklin Lakes, N.J.) at 75,000 cells/well. On the day of the assay, the plates were washed with LTCC wash buffer (127 mM NaCl, 2 mM MgCl2, 700 μM NaH2PO4, 5 mM CaCl2, 5 mM NaHCO3, 8 mM HEPES, 10 mM glucose, pH 7.4), then loaded with 0.1 mL of LTCC wash buffer containing Fluo-4 (3 μM final concentration, Molecular Probes, Eugene, Oreg.). After 1 hour, the cells were washed with 0.1 mL LTCC wash buffer and resuspended in 0.05 mL LTCC assay buffer (same composition as LTCC wash buffer). Plates were then transferred to a FLIPR^96 for assay. The FLIPR measured basal Fluo-4 fluorescence for 15 seconds, then added 0.05 mL of each compound tested diluted in LTCC assay buffer at final concentrations ranging from about 846 pM to about 17 μM. Fluo-4 fluorescence was then measured for 5 minutes. 0.1 mL KCl agonist dissolved in LTCC assay buffer was then added to the cells to produce a final concentration of 90 mM KCl, and fluorescence was measured for another 45 seconds. Data were collected over the entire time course and analyzed using Excel, Graph Pad Prism, or an in-house regression analysis software.
L-type Recombinant Cell Line Development. L-type calcium channel expressing HEK-293 cells were created in two stages. Stage 1 was created as follows. The rat α1c, and β1 cDNA expression constructs (2.5 μg each) were co-transfected into human embryonic kidney (HEK-293) cells by Lipofectamine Plus reagent (Invitrogen), as per manufacturer's instructions. 24 hours later, cells were split in limiting dilution into multiple 96-well plates in selection media containing 20 μg/mL blasticidin and 500 μg/mL geneticin, and incubated for 3 weeks at 37° C., 5% CO2, 95% humidity. Plates containing ≦1 clone per well were cultured until wells positive for single clones were confluent. Individual clones were then arrayed into columns of a destination 96-well plate, and partly split into 6-well plates for culture maintenance. Array plates were washed once with LTCC wash (or assay) buffer and cells loaded for 1 hour with 0.1 mL of LTCC buffer containing Fluo-4 (3 μM final concentration, Molecular Probes). Then they were washed twice with 0.1 mL of LTCC buffer, and replaced with 0.1 mL LTCC buffer. Plates were then transferred to a FLIPR^96 for assay. The FLIPR measured basal Fluo-4 fluorescence for 315 seconds, then added 0.1 mL KCl agonist dissolved in LTCC buffer and measured fluorescence for another 45 seconds. Final KCl concentration was 90 mM. Data were collected over the entire time course and analyzed using Excel, Graph Pad Prism, or Activity Base software. The clone with the greatest signal-to-noise ratio, best stability of response with passage number, and best adhesion to PDL precoated plates (Becton Dickinson) was expanded, characterized and used for stage 2 cell line development.
Stage 2 of L-type cell line development was carried out as follows. The rat α2δ cDNA expression construct (5 μg each) was transfected into the stage 1 L-type clonal cell line by Lipofectamine Plus reagent (Invitrogen), as per manufacturer's instructions. […]

T2 sequence (P22002 whole entry): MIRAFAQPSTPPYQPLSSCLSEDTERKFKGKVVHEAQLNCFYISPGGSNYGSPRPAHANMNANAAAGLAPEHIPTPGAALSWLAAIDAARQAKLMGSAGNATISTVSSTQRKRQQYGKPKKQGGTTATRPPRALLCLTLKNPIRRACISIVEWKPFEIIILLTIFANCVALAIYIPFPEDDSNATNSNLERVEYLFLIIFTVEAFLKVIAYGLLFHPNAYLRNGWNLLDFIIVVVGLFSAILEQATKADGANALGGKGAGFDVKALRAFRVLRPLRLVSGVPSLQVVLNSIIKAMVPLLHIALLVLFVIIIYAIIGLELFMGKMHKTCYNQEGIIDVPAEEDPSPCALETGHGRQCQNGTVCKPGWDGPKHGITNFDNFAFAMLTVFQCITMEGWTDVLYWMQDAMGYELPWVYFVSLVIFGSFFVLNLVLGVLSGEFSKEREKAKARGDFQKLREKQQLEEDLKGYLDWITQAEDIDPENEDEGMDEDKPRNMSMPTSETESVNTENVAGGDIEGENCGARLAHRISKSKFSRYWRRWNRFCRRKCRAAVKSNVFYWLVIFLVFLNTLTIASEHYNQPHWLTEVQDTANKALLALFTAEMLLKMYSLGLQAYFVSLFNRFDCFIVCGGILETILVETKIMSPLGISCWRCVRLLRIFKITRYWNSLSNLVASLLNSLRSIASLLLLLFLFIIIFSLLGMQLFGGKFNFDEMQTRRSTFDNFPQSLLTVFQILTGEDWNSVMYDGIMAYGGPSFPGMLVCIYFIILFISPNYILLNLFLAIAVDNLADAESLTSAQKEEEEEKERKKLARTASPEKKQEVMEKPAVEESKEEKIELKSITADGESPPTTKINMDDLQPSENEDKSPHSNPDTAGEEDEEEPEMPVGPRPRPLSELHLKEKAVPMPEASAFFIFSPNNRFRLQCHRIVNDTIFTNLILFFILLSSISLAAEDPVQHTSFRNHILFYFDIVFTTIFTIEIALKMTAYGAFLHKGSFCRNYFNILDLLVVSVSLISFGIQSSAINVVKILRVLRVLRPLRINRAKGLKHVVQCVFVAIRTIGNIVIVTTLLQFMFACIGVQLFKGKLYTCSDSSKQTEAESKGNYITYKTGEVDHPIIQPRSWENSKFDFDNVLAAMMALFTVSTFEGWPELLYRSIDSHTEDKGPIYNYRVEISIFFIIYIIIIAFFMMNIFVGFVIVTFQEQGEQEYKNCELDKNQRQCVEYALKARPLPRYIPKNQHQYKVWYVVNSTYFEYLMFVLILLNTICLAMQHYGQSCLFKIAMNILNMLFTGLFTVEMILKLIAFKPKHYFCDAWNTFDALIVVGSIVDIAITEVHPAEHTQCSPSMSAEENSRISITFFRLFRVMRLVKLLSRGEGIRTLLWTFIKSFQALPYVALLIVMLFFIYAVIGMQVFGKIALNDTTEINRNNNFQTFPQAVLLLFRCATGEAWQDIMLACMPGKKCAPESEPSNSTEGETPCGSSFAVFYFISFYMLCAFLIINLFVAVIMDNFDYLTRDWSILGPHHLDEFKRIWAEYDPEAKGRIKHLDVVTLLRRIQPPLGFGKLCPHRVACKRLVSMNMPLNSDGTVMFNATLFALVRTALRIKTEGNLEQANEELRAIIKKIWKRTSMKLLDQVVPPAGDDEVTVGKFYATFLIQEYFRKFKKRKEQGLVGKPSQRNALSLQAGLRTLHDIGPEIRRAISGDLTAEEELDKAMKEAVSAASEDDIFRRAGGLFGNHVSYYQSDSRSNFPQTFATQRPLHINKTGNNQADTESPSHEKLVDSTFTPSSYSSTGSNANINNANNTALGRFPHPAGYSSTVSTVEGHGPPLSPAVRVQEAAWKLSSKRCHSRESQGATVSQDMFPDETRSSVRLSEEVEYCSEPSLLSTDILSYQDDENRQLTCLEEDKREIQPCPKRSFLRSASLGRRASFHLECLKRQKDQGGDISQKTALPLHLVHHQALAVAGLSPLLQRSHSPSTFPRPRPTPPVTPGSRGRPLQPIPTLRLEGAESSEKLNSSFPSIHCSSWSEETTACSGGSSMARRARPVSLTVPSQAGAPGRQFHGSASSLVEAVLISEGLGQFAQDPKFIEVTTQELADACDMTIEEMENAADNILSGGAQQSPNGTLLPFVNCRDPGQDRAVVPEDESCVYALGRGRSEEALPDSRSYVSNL
T2 sequence (P54290 25-944 partner): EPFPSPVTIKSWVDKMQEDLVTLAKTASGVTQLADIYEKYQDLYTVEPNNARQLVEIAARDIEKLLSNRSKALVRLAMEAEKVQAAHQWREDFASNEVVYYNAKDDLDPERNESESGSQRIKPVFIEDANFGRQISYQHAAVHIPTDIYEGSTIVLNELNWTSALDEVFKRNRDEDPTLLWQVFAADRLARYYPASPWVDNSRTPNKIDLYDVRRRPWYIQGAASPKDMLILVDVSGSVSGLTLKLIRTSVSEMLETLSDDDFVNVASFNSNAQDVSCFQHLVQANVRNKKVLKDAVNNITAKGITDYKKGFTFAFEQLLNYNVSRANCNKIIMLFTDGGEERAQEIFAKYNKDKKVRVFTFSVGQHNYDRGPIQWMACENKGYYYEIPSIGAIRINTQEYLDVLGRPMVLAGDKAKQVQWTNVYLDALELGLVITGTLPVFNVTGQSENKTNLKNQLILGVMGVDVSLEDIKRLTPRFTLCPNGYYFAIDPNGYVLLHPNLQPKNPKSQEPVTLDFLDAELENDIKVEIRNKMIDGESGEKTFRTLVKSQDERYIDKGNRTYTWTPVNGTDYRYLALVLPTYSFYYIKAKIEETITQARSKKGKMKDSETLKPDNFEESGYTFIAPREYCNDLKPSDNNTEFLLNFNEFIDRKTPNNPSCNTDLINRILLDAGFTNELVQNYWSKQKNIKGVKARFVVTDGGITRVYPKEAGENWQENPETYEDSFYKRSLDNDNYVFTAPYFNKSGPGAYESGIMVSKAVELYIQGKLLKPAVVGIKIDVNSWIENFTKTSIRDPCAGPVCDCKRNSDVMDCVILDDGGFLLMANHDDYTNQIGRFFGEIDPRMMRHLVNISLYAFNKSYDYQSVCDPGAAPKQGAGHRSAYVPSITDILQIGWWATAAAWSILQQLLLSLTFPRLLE
T2 sequence (P54290 945-1091 partner): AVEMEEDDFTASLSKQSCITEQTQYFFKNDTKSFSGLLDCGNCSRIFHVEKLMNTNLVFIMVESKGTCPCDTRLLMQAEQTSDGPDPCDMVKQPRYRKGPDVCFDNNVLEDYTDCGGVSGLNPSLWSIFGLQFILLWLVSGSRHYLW
T2 sequence (P54283 whole entry partner): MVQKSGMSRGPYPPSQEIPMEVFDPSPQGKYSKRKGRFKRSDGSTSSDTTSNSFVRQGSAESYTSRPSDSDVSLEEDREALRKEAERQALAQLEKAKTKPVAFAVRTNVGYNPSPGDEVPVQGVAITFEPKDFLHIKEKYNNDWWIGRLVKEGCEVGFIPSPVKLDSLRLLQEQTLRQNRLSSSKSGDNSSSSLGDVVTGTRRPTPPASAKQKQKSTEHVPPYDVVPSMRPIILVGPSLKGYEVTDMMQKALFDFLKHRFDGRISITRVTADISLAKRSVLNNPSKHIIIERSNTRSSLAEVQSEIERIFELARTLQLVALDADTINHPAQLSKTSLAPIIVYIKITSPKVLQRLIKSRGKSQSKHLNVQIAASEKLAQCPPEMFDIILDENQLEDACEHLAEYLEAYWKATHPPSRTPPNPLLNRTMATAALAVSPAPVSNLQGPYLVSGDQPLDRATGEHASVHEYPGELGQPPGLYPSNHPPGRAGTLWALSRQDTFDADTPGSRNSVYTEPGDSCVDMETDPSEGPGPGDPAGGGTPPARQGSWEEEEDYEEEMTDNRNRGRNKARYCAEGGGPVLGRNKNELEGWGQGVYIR

Molecule | IC50 [1] [nM] | IC50 [2] [nM]
O=C(CN1CCCC(N(C2CC2)S(=O)(=O)c2cccc(C(F)(F)F)c2)C1)Nc1ccc(F)cc1 (stereo not drawn) [2-{3-[Cyclopropyl-(3-trifluoromethylbenzenesulfonyl)amino]-piperidin-1-yl}-N-(4-fluorophenyl)-acetamide] | 360 | 6180
COCCNCCC(=O)N1CCCC(N(C2CC2)S(=O)(=O)c2cccc(C(F)(F)F)c2)C1 (stereo not drawn) [N-Cyclopropyl-N-{1-[3-(2-methoxyethylamino)propionyl]piperidin-3-yl}-3-trifluoromethylbenzenesulfonamide] | 810 | 10000 to 20000
CN[C@@H](CC(C)C)C(=O)N1CCCC(N(C2CC2)S(=O)(=O)c2cccc(C(F)(F)F)c2)C1 (stereo partly drawn) [(2S)N-Cyclopropyl-N-[1-(4-methyl-2-methylaminopentanoyl)-piperidin-3-yl]-3-trifluoromethylbenzenesulfonamide] | 540 | 6580
(2S)N-Cyclopropyl-N-[1-(2-methylcarbonylpropylamino-4-methylpentanoyl)piperidin-3-yl]-3-trifluoromethylbenzenesulfonamide | 510 | –
CC(C)CNCCC(=O)N1CCCC(N(C2CC2)S(=O)(=O)c2cccc(C(F)(F)F)c2)C1 (stereo not drawn) [N-Cyclopropyl-N-[1-(3-isobutylaminopropionyl)piperidin-3-yl]-3-trifluoromethylbenzenesulfonamide] | 820 | 5630
CC(C)CNCC(=O)N1CCCC(N(C2CC2)S(=O)(=O)c2cccc(C(F)(F)F)c2)C1 (stereo not drawn) [N-Cyclopropyl-N-[1-(2-isobutylaminoacetyl)piperidin-3-yl]-3-trifluoromethylbenzenesulfonamide] | 690 | 5750
O=C(CN1CCC(NS(=O)(=O)c2cccc(C(F)(F)F)c2)C1)Nc1ccc(F)cc1 (stereo not drawn) [N-(4-Fluorophenyl)-2-[3-(3-trifluoromethylbenzenesulfonylamino)-pyrrolidin-1-yl]acetamide] | 1680 | –
O=C(CCNCCO)N1CCCC(N(C2CC2)S(=O)(=O)c2cccc(C(F)(F)F)c2)C1 (stereo not drawn) [N-Cyclopropyl-N-{1-[3-(2-hydroxyethylamino)propionyl]piperidin-3-yl}-3-trifluoromethylbenzenesulfonamide] | 2830 | –
CCN[C@@H](CC(C)C)C(=O)N1CCCC(N(C2CC2)S(=O)(=O)c2cccc(C(F)(F)F)c2)C1 (stereo partly drawn) [(2S)N-Cyclopropyl-N-[1-(2-ethylamino-4-methylpentanoyl)piperidin-3-yl]-3-trifluoromethylbenzenesulfonamide] | 130 | 5070
CC(C)C[C@H](NC(C)C)C(=O)N1CCCC(N(C2CC2)S(=O)(=O)c2cccc(C(F)(F)F)c2)C1 (stereo partly drawn) [(2S)N-Cyclopropyl-N-[1-(2-isopropylamino-4-methylpentanoyl)piperidin-3-yl]-3-trifluoromethylbenzenesulfonamide] | 210 | –
CC(C)C[C@H](N)C(=O)N1CCCC(N(C2CC2)S(=O)(=O)c2cccc(C(F)(F)F)c2)C1 (stereo partly drawn) [(2S)N-[1-(2-Amino-4-methylpentanoyl)piperidin-3-yl]-N-cyclopropyl-3-trifluoromethylbenzenesulfonamide] | 1100 | 6580

The remaining molecules from weak to strong by IC50 [1], led by results:

IC50 [1] [nM] | IC50 [2] [nM] | Molecule
2220 | – | O=S(=O)(c1cccc(C(F)(F)F)c1)N(C1CC1)C1CCCN(CCCN(c2ccc(F)cc2)c2ccc(F)cc2)C1 (stereo not drawn) [N-Cyclopropyl-N-(1-{3-[bis-(4-fluorophenyl)amino]propyl}piperidin-3-yl)-3-trifluoromethylbenzenesulfonamide]
1200 | > 20000 | O=C(CNCc1cccnc1)N1CCCC(N(C2CC2)S(=O)(=O)c2cccc(C(F)(F)F)c2)C1 (stereo not drawn) [N-Cyclopropyl-N-(1-{2-[(pyridin-3-ylmethyl)amino]acetyl}-piperidin-3-yl)-3-trifluoromethylbenzenesulfonamide]
630 | 8770 | CC(C)NCCC(=O)N1CCCC(N(C2CC2)S(=O)(=O)c2cccc(C(F)(F)F)c2)C1 (stereo not drawn) [N-Cyclopropyl-N-[1-(3-isopropylaminopropionyl)piperidin-3-yl]-3-trifluoromethylbenzenesulfonamide]
430 | 9820 | CC(C)CNC(=O)CN1CCCC(N(C2CC2)S(=O)(=O)c2cccc(C(F)(F)F)c2)C1 (stereo not drawn) [2-{3-[Cyclopropyl-(3-trifluoromethylbenzenesulfonyl)-amino]-piperidin-1-yl}-N-isobutyl-acetamide]
420 | 4650 | COc1ccc(CNCC(=O)N2CCCC(N(C3CC3)S(=O)(=O)c3cccc(C(F)(F)F)c3)C2)cc1 (stereo not drawn) [N-Cyclopropyl-N-{1-[2-(4-methoxybenzylamino)acetyl]-piperidin-3-yl}-3-trifluoromethylbenzenesulfonamide]
360 | – | CC(C)CCN[C@@H](CC(C)C)C(=O)N1CCCC(N(C2CC2)S(=O)(=O)c2cccc(C(F)(F)F)c2)C1 (stereo partly drawn) [(2S)N-Cyclopropyl-N-{1-[2-(3-methylbutyl)amino-4-methylpentanoyl]piperidin-3-yl}-3-trifluoromethylbenzenesulfonamide]
280 | 500 | CC(C)C[C@H](N)CC(=O)N1CCCC(N(C2CC2)S(=O)(=O)c2cccc(C(F)(F)F)c2)C1 (stereo partly drawn) [(2S)N-[1-(3-Amino-5-methylhexanoyl)piperidin-3-yl]-N-cyclopropyl-3-trifluoromethylbenzenesulfonamide]
